Literature values, collected in patent US11376295B2, “Method for preparing Rhus verniciflua stokes extract containing increased fisetin content, and metastasis-inhibiting anticancer agent composition containing same” (MEDIENCE CO.,LTD, priority 2018, dated 2022).

Details: among flavonoids of the Rhus verniciflua Stokes extract; result of research, background

For O=C1c2ccc(O)cc2O[C@H](c2ccc(O)c(O)c2)[C@H]1O [fustin], the anticancer activity is listed as “low anticancer activity”.

For O=c1c(O)c(-c2ccc(O)c(O)c2)oc2cc(O)ccc12 [fisetin], the anticancer activity is given as “highest anticancer activity”.
